Like-named read-outs stand apart in the source and are kept apart here.
Assays:
[1] = Acute toxicity determination, oral LD50 by method of BEHRENS and KARBER; details: mouse, in vivo, female Swiss mice, 48 hours observation
Description: Acute toxicity tests were carried out with lots of 10 female mice of "Swiss" strain, weighing from 19 to 21 g.
The means lethal dose (LD50) by the oral route was determined by means of the method of BEHRENS and KARBER after keeping the animals under observation during 48 hours. In this table are also set forth the LD50 of acetylsalicylic acid and of indometacine used as reference materials.

[2] = system: peritoneal pain induced by injection of acetic acid; experiment: Analgesic activity: inhibition test of the peritoneal pain induced by injection of acetic acid (writhing); format: in vivo, mice; details: Mus musculus, read-out: % analgesia
Description: The analgesic activity was determined by the inhibition test of the peritoneal pain induced by injection of acetic acid.
The materials having an analgesic action reduce or eliminate this syndrome.
Lots of 10 mice are given orally the various test compounds, 30 minutes prior to injection of the challenging material. The writhing movements are counted during 15 minutes and the analgesic effect is expressed as percent decrease of the number of stretching movements with respect to the reference animals.
The same test was carried out with acetylsalicylic acid.

[3] = system: carragheenin-induced edema of the paws; experiment: Anti-inflammatory activity: test of the carragheenin-induced edema of the paws in rats; format: in vivo; details: Rattus norvegicus, 1 h, read-out: % inhibition of inflammation; for inhibition in vivo at 50 mg/kg: 50 mg/kg (about 1/36 of LD50); for inhibition in vivo at 67 mg/kg: 67 mg/kg (about 1/36 of LD50); for inhibition in vivo at 33 mg/kg: 33 mg/kg (about 1/36 of LD50)
Description: The anti-inflammatory activity was determined by means of the test of the carragheenin-induced edema of the pawsin rats.
Male rats weighing about 120 g are administered 0.1 ml of an 0.5% carragheenin suspension (plantar sub-aponeurotic injection) one hour after oral treatment with the various test compounds.
The volume of the rear paws is measured prior to injection of the inflammatory agent, and then 2, 3 and 4 hours after injection.
The difference between the volume of the paws of the treated animals and the volume of the paws of the reference animals evidences the anti-inflammatory action of the various test compounds.
The same test was carried out with indometacine.

[4] = male rats, oral, one hour before carragheenin
[5] = mice, oral, 30 minutes before acetic acid
[6] = male rats, oral, 81 mg/kg (about 1/36 of LD50), one hour before carragheenin

Q: Which LD50 at 48 h [1] does the source give for `C=CCNc1ccc(C(C)C(=O)[O-])cc1.[Li+]` (stereo not shown) here?
A: 2910 mg/kg

Q: With `C=CCNc1ccc(C(C)C(=O)O)cc1` (stereo not shown) [2-(p-allylaminophenyl)propionic acid, 2-(p-Allylaminophenyl)-propionic acid] as the compound, how does the inhibition in vivo at 20 mg/kg ([2]; mice, oral, 20 mg/kg, 30 minutes before acetic acid) read?
A: 50%

Q: And the inhibition in vivo at 50 mg/kg [3, 4]?
A: 50%

Q: And the LD50 at 48 h [1]?
A: 1780 mg/kg

Q: Which inhibition in vivo at 10 mg/kg ([2]; mice, oral, 10 mg/kg, 30 minutes before acetic acid) does the source give for `CC(C(=O)O)c1ccc(NCc2ccccc2)cc1` (stereo not shown) [2-(p-benzylaminophenyl)propionic acid] here?
A: 47%

Q: And the inhibition in vivo at 25 mg/kg ([3]; male rats, oral, 25 mg/kg (about 1/36 of LD50), one hour before carragheenin)?
A: 12%

Q: And the LD50 at 48 h [1]?
A: 880 mg/kg

Q: With `CCNc1ccc(C(C)C(=O)O)cc1` (stereo not shown) [2-(p-ethylaminophenyl)propionic acid, 2-(p-Ethylaminophenyl)propionic acid] as the compound, how does the inhibition in vivo at 27 mg/kg [2, 5] read?
A: 44%

Q: What about the inhibition in vivo at 67 mg/kg [3, 4] of the same compound?
A: 47%

Q: What about the LD50 at 48 h [1] of the same compound?
A: 2400 mg/kg

Q: Which results are given for `CC(C)Nc1ccc(C(C)C(=O)O)cc1` (stereo not shown) [2-(p-isopropylaminophenyl)propionic acid, 2-(p-Isopropylaminophenyl)-propionic acid]?
A: inhibition in vivo at 27 mg/kg [2, 5]: 56%; inhibition in vivo at 67 mg/kg [3, 4]: 44%; LD50 at 48 h [1]: 2400 mg/kg

Q: For `C=C(C)CNc1ccc(C(C)C(=O)O)cc1` (stereo not shown) [2-(p-methallylaminophenyl)propionic acid, 2-(p-Methallylaminophenyl)propionic acid], which inhibition in vivo at 7 mg/kg ([2]; mice, oral, 7 mg/kg, 30 minutes before acetic acid) is on record?
A: 58%

Q: What about the inhibition in vivo at 67 mg/kg [3, 4] of the same compound?
A: 51%

Q: What about the LD50 at 48 h [1] of the same compound?
A: 2400 mg/kg

Q: With `CNc1ccc(C(C)C(=O)O)cc1` (stereo not shown) [2-(p-methylaminophenyl)propionic acid, 2-(p-Methylaminophenyl)propionic acid] as the compound, how does the inhibition in vivo at 36 mg/kg [2, 5] read?
A: 60%

Q: And the inhibition in vivo at 89 mg/kg ([3]; male rats, oral, 89 mg/kg (about 1/36 of LD50), one hour before carragheenin)?
A: 44%

Q: And the LD50 at 48 h [1]?
A: > 3200 mg/kg

Q: Which inhibition in vivo at 13 mg/kg ([2]; mice, oral, 13 mg/kg, 30 minutes before acetic acid) does the source give for `CCCCNc1ccc(C(C)C(=O)O)cc1` (stereo not shown) [2-(p-n-butylaminophenyl)propionic acid, 2-(p-n-Butylaminophenyl)propionic acid] here?
A: 50%

Q: And the inhibition in vivo at 33 mg/kg [3, 4]?
A: 33%

Q: What about the LD50 at 48 h [1] of the same compound?
A: 1200 mg/kg

Q: With `CCCNc1ccc(C(C)C(=O)O)cc1` (stereo not shown) [2-(p-n-propylaminophenyl)-propionic acid, 2-(p-n-Propylaminophenyl)propionic acid] as the compound, how does the inhibition in vivo at 13.5 mg/kg [2, 5] read?
A: 61%

Q: What about the inhibition in vivo at 67 mg/kg [3, 4] of the same compound?
A: 47%

Q: And the LD50 at 48 h [1]?
A: 2400 mg/kg

Q: With `C#CCNc1ccc(C(C)C(=O)O)cc1` (stereo not shown) [2-(p-propargylaminophenyl)propionic acid, 2-(p-Propargylaminophenyl)-propionic acid] as the compound, how does the inhibition in vivo at 13.5 mg/kg [2, 5] read?
A: 55%

Q: What about the inhibition in vivo at 67 mg/kg [3, 4] of the same compound?
A: 47%

Q: What about the LD50 at 48 h [1] of the same compound?
A: 2400 mg/kg

Q: Which results are given for `C=C(C)CNc1ccc(C(C)C(=O)OC)cc1.Cl` (stereo not shown) [Methyl 2-(p-methallylaminophenyl)-propionate hydrochloride]?
A: inhibition in vivo at 27 mg/kg [2, 5]: 49%; inhibition in vivo at 67 mg/kg [3, 4]: 46%; LD50 at 48 h [1]: 2400 mg/kg

Q: With `CC(=O)Oc1ccccc1C(=O)O` [acetylsalicylic acid, reference compound] as the compound, how does the inhibition in vivo at 100 mg/kg ([2]; po) read?
A: 55%

Q: What about the LD50 at 48 h [1] of the same compound?
A: 1500 mg/kg

Q: What does the source list for `C=CCNc1ccc(CC(=O)OCC)cc1` [ethyl p-allylaminophenylacetate, Ethyl para-allylaminophenylacetate]?
A: inhibition in vivo at 67 mg/kg [2, 5]: 41%; inhibition in vivo at 67 mg/kg [3, 4]: 39%; LD50 at 48 h [1]: 2400 mg/kg

Q: Which inhibition in vivo at 67 mg/kg [2, 5] does the source give for `C=C(C)CNc1ccc(CC(=O)OCC)cc1` [ethyl p-methallylaminophenylacetate, Ethyl p-methallylaminophenylacetate] here?
A: 51%

Q: And the inhibition in vivo at 67 mg/kg [3, 4]?
A: 38%

Q: And the LD50 at 48 h [1]?
A: 2400 mg/kg

Q: With `COc1ccc2c(c1)c(CC(=O)O)c(C)n2C(=O)c1ccc(Cl)cc1` [indometacine, reference compound] as the compound, how does the inhibition in vivo at 5 mg/kg ([3]; po) read?
A: 37%

Q: And the LD50 at 48 h [1]?
A: 50 mg/kg

Q: Which results are given for `C=CCNc1ccc(C(C)C(=O)[O-])cc1.[Li+]` (stereo not shown) [lithium salt]?
A: inhibition in vivo at 81 mg/kg ([2]; po): 28%; inhibition in vivo at 81 mg/kg ([3]; po): 59%

Q: Which inhibition in vivo at 25 mg/kg ([2]; mice, oral, 25 mg/kg, 30 minutes before acetic acid) does the source give for `C=CCNc1ccc(C(C)C(=O)OC)cc1` (stereo not shown) [methyl 2-(p-allylaminophenyl)propionate, Methyl 2-(p-allylaminophenyl)-propionate] here?
A: 57%

Q: And the inhibition in vivo at 50 mg/kg [3, 4]?
A: 35%

Q: What about the LD50 at 48 h [1] of the same compound?
A: 1600 mg/kg

Q: What does the source list for `C=CCNc1ccc(CC(=O)O)cc1` [p-allylaminophenylacetic acid, p-Allylaminophenylacetic acid]?
A: inhibition in vivo at 100 mg/kg ([2]; mice, oral, 100 mg/kg, 30 minutes before acetic acid): 51%; inhibition in vivo at 45 mg/kg ([3]; male rats, oral, 45 mg/kg (about 1/36 of LD50), one hour before carragheenin): 32%; LD50 at 48 h [1]: 1550 mg/kg

Q: What does the source list for `O=C(O)Cc1ccc(NCc2ccccc2)cc1` [p-benzylaminophenylacetic acid, p-Benzylaminophenylacetic acid]?
A: inhibition in vivo at 67 mg/kg [2, 5]: 33%; inhibition in vivo at 67 mg/kg [3, 4]: 26%; LD50 at 48 h [1]: 2400 mg/kg

Q: With `CCNc1ccc(CC(=O)O)cc1` [p-ethylaminophenylacetic acid, p-Ethylaminophenylacetic acid] as the compound, how does the inhibition in vivo at 16 mg/kg ([2]; mice, oral, 16 mg/kg, 30 minutes before acetic acid) read?
A: 37.5%

Q: And the inhibition in vivo at 81 mg/kg [3, 6]?
A: 23%

Q: What about the LD50 at 48 h [1] of the same compound?
A: 2910 mg/kg

Q: For `CC(C)Nc1ccc(CC(=O)O)cc1` [p-isopropylaminophenylacetic acid, p-Isopropylaminophenylacetic acid], which inhibition in vivo at 13.5 mg/kg [2, 5] is on record?
A: 42%

Q: What about the inhibition in vivo at 67 mg/kg [3, 4] of the same compound?
A: 42%

Q: What about the LD50 at 48 h [1] of the same compound?
A: 2400 mg/kg

Q: For `C=C(C)CNc1ccc(CC(=O)O)cc1` [p-methallylaminophenylacetic acid, p-Methallylaminophenylacetic acid], which inhibition in vivo at 49 mg/kg ([2]; mice, oral, 49 mg/kg, 30 minutes before acetic acid) is on record?
A: 32%

Q: And the inhibition in vivo at 49 mg/kg ([3]; male rats, oral, 49 mg/kg (about 1/36 of LD50), one hour before carragheenin)?
A: 25%

Q: And the LD50 at 48 h [1]?
A: 1780 mg/kg

Q: Which inhibition in vivo at 33 mg/kg ([2]; mice, oral, 33 mg/kg, 30 minutes before acetic acid) does the source give for `CCCCNc1ccc(CC(=O)O)cc1` [p-n-butylaminophenylacetic acid, p-n-Butylaminophenylacetic acid] here?
A: 51%

Q: And the inhibition in vivo at 33 mg/kg [3, 4]?
A: 21%

Q: What about the LD50 at 48 h [1] of the same compound?
A: 1200 mg/kg

Q: For `CCCNc1ccc(CC(=O)O)cc1` [p-n-propylaminophenylacetic acid, p-n-Propylaminophenylacetic acid], which inhibition in vivo at 27 mg/kg [2, 5] is on record?
A: 49%

Q: What about the inhibition in vivo at 67 mg/kg [3, 4] of the same compound?
A: 38%

Q: What about the LD50 at 48 h [1] of the same compound?
A: 2400 mg/kg

Q: What does the source list for `C#CCNc1ccc(CC(=O)O)cc1` [p-propargylaminophenylacetic acid]?
A: inhibition in vivo at 36 mg/kg [2, 5]: 51%; inhibition in vivo at 81 mg/kg [3, 6]: 18%; LD50 at 48 h [1]: 2910 mg/kg
